The subject of test [1] is Plasmodium falciparum.
Description: Antimalarial activity against Plasmodium falciparum D6
The subject of test [2] is Plasmodium falciparum. The source holds these as a separate data set.
Description: (§1) Antimalarial activity against Plasmodium falciparum W2
The test system of a further test is IGROV-1. Nature of the test: Antiproliferative activity against human IGROV1 cell line after 48 hrs. Particulars: Homo sapiens, IGROV-1, 48 h. The test is classed as functional.
The test system of a further test is UO-31. Put plainly: Antiproliferative activity against human UO31 cell line after 48 hrs. To be noted: Homo sapiens, UO-31, 48 h; for CC50: read-out: LC50 (the source's name). The test is classed as functional.
Test [3] deals with Plasmodium falciparum. This is another data set of the same source.
Description: Antimalarial activity against Plasmodium falciparum TM91C235
The test system of the next test is LOX IMVI. Nature of the test: Antiproliferative activity against human LOX IMVI cell line after 48 hrs. The class given is functional.
For test [4], the system named is Plasmodium falciparum. Put plainly: microbe, parasite or virus in culture. Particulars: W2.
Description: as §1
The mark [5] stands for this setting: read-out: LC50 (the source's name).

pIC50: −log10 of the molar value.

In the case of `CCCOC(=O)CC[C@@H](C)[C@H]1CC[C@H]2[C@@H]3[C@H](OC(C)=O)C[C@@H]4CC5(CC[C@]4(C)[C@H]3C[C@H](OC(C)=O)[C@]12C)OOC1(CCC(C(=O)OCCC)CC1)OO5` (stereo in doubt; 5a), the pIC50 in the test with Plasmodium falciparum [1] is 8.17; in the test with Plasmodium falciparum [2], 8.05; with Plasmodium falciparum [3] it was 8.06. The 90% effect concentration (IC90) in the test on Plasmodium falciparum [1] worked out at 9.4 nM; with Plasmodium falciparum [2], 17.4 nM; in the test on Plasmodium falciparum [3] it was 18 nM. Also, the GI50 amounted to 1990 nM in the test on IGROV-1, 1150 nM in the test with UO-31 and 1090 nM in the test on LOX IMVI. For the same compound, the TGI worked out at 6.16 µM with IGROV-1, 2.44 µM with UO-31 and 2740 nM in the test with LOX IMVI. Further, the CC50 is over 100 µM with IGROV-1 (setting [5]), 5.19 µM in the test on UO-31 and 6.91 µM in the test with LOX IMVI (setting [5]).
Consider `CCCOC(=O)CC[C@@H](C)[C@H]1CC[C@H]2[C@@H]3[C@H](OC(C)=O)C[C@@H]4CC5(CC[C@]4(C)[C@H]3C[C@H](OC(C)=O)[C@]12C)OOC1(CCC(C(=O)OCCC)CC1)OO5` (stereo in doubt; 5b), for which the pIC50 in the test with Plasmodium falciparum [1] is 7.52; in the test with Plasmodium falciparum [2] it was 7.38; with Plasmodium falciparum [3], 7.37. Besides, the IC90 in the test on Plasmodium falciparum [1] turned out to be 47.4 nM; in the test with Plasmodium falciparum [2], 83.5 nM; with Plasmodium falciparum [3] it was 75.8 nM.
As for `CC(=O)O[C@H]1C[C@H]2[C@@H]([C@H](OC(C)=O)C[C@@H]3CC4(CC[C@@]32C)OOC2(CCC(C(=O)O)CC2)OO4)[C@@H]2CC[C@H]([C@H](C)CCC(=O)O)[C@@]12C` (stereo in doubt; 6a), in the test on Plasmodium falciparum [1], the pIC50 was 7.01 and the IC90 is 147 nM. In the test on Plasmodium falciparum [2], this compound had a pIC50 of 6.87 and an IC90 of 156 nM. In the test with UO-31, the GI50 amounted to 1740 nM, net growth stopped (TGI) at 3.65 µM and the CC50 came out at 7.66 µM. In the test with Plasmodium falciparum [3], the pIC50 was 6.87 and the IC90 was 257 nM.
`CC(=O)O[C@H]1C[C@H]2[C@@H]([C@H](OC(C)=O)C[C@@H]3CC4(CC[C@@]32C)OOC2(CCC(C(N)=O)CC2)OO4)[C@@H]2CC[C@H]([C@H](C)CCC(N)=O)[C@@]12C` (stereo in doubt; 8): the results for the pIC50 in the test with Plasmodium falciparum [1], with Plasmodium falciparum [2] and in the test with Plasmodium falciparum [3] were 6.92, 6.92 and 6.78, respectively. For the same compound, the IC90 is 196 nM in the test with Plasmodium falciparum [1], 265 nM in the test with Plasmodium falciparum [2] and 249 nM in the test with Plasmodium falciparum [3].
As for `CCCNC(=O)CC[C@@H](C)[C@H]1CC[C@H]2[C@@H]3[C@H](OC(C)=O)C[C@@H]4CC5(CC[C@]4(C)[C@H]3C[C@H](OC(C)=O)[C@]12C)OOC1(CCC(C(=O)NCCC)CC1)OO5` (stereo in doubt; 9), the pIC50 is 7.98 with Plasmodium falciparum [1], 7.74 with Plasmodium falciparum [2] and 7.83 with Plasmodium falciparum [3]. Besides, the figures for the IC90 with Plasmodium falciparum [1], with Plasmodium falciparum [2] and in the test with Plasmodium falciparum [3] were 17.8 nM, 39.6 nM and 63.2 nM, respectively.
Turning to `CCCNC(=O)CC[C@@H](C)[C@H]1CC[C@H]2[C@@H]3[C@H](OC(C)=O)C[C@@H]4CC5(CC[C@]4(C)[C@H]3C[C@H](OC(C)=O)[C@]12C)OOC1(CCC(C(=O)NCCC)CC1)OO5` (stereo in doubt; 10), the negative logarithm of the IC50 (pIC50) in the test with Plasmodium falciparum [1] was 7.41; in the test on Plasmodium falciparum [2] it was 7.23; with Plasmodium falciparum [3], 7.28. Further, the IC90 was 56 nM with Plasmodium falciparum [1], 78 nM in the test with Plasmodium falciparum [4] and 127 nM with Plasmodium falciparum [3].
Consider `CC(=O)O[C@H]1C[C@H]2[C@@H]([C@H](OC(C)=O)C[C@@H]3CC4(CC[C@@]32C)OOC2(CCC(C(=O)Nc3ccccc3)CC2)OO4)[C@@H]2CC[C@H]([C@H](C)CCC(=O)Nc3ccccc3)[C@@]12C` (stereo in doubt; 14), for which the pIC50 was 7.53 in the test on Plasmodium falciparum [1], 7.28 with Plasmodium falciparum [2] and 7.37 in the test on Plasmodium falciparum [3]. For the same compound, the figures for the IC90 in the test with Plasmodium falciparum [1], in the test with Plasmodium falciparum [2] and with Plasmodium falciparum [3] were 44.5 nM, 74.2 nM and 86.6 nM, respectively.
